According to US20040171594A1, “Use of bis-acid(5-androsten-17-one-3beta-hydroxyl)diester for manufacture pharmaceuticals” (priority 2001, published 2004):
Marks after values point to notes of the source that are not given here.

Columns and labels:
[1] = test system: arrhythmia of rats induced by Aconitine; assay: Arrhythmia of rats induced by Aconitine; type: in vivo, SD rats
Description: Male SD rats, weighing (218.3±20.0) g, were anaesthetized with urethane 1.2 g/kg body weight by abdominal injection, continuously monitored by II lead electrocardiogram (ECG) by MS302 Biological Signal Record and Analysis System. After ten minutes of being administered drug or 0.5% CMC-Na through sublingual vein, rats were injected with Aconitine in external jugular vein at 2.5 μg/min speed, recorded the dose at appearance time of ventricular premature beat (VP), ventricular tachycardia (VT), ventricular fibrillation (VF) and cardiac arrest (CA), respectively. And t test was performed. […] The effect of compounds Ca Do E at 0.5 mg/kg dose were remarkably better than that of Prasterone and Arniodarone.

[2] = test system: arrhythmia of rats induced by BaCl2; assay: Arrhythmia of rats induced by BaCl2; type: in vivo, SD rats; conditions: BaCl2 4 mg/kg, drug 3 mg/kg into vein, within 60 min, n=10
Description: 50 male SD rats, weighing (236.7±13.7)g, were anaesthetized with 10% chloral hadrate 0.3 g/kg intraperitoneally, recorded ECG with intubating of external jugular vein administering drug. As soon as injected with BaCl2 4 mg/kg, rats usually emerged VP and VT quickly and developed to be the steady and typical double-aspect arrhythmia. After immediately injected with drug or 0.5% CMC-Na into vein, recorded the time of recovering and maintaining sinus rhythm within 60 min as standard, and compared the function between five groups. […] Time of maintaining sinus rhythm was longer and acted more quickly than that of Amiodarone group.

[3] = test system: arrhythmia of guinea pigs induced by Ouabain; assay: Arrhythmia of guinea pigs induced by Ouabain; type: in vivo; conditions: n=8
Description: Chose 40 male guinea pigs, weighing (288.8±38.3) g, randomly divided into six groups, anaesthetized with urethane 1.2 g/kg by abdominal injection. Ten minutes after administered drug or 0.5% CMC-Na, the guinea pigs were injected Ouabain into external jugular vein at 3 μg/min speed, recorded ECG respectively, measured the dose at appearance time of VP, VT, VF and CA, and performed t test.

[4] = test system: myocardium injury model of rats induced by ISO; assay: Myocardium injury (myocardial ischemia) model of rats induced by ISO; type: in vivo, SD rats; conditions: drug 0.76 mg/kg, n=8; for Σ ST: rats, ISO s.c.
Description: SD rats were measured ECG by chest leads before experiment, abandoned those of abnormal or arrhythmia at T wave, ST sect. […] They were divided into four groups according to Table 4, eight rats in each group. As dose of Table 4, tested compounds or 0.5% CMC-Na solution with same volume were administered through duodenum for 30 minutes, rats were anaesthetized with aether. After ECG was recorded, Isoproterenol (ISO) was administered by subcutaneous injection from the back, recorded ECG again after 30 minutes. After specimen was intragastricly granted for 24 hours and 48 hours, every group was administered simples again and recorded ECG again in terms of the methods stated above. After 72 hours, bleeding from the ophthalmic venous plexus and separated blood serum through centrifugation. Killed the rats, scissor the tip of the heart to prepare 10% myocardial tissue homogenate with 4° C. physiological saline as standby.
Measured each rat's value of ST before first administering ISO. And after first, second and third subcutaneous injection for 30 minutes, calculated mv mean value of ΣST as guide line of myocardium injury and performed t test.
The changes of MDA LDH and CK in serum were measured with agent kits.
The changes of MDA, LDH and CK in serum and myocardial tissue homogenate were measured with agent kits.

[5] = test system: osteoporosis model of rats induced by Retinoic acid; assay: Osteoporosis model of rats induced by Retinoic acid; type: in vivo, SD rats; conditions: Retinoic acid 70 mg/kg, specimen orally 30 days (dose not given), right thighbone, n=8
From the text: After continuously administering specimen for 30 days, killed rats and took right thighbone of rat.
Took same part tissue of right thighbone, routinely decalcified, enveloped with olefin, and dyed with HE. Observed with ordinary optics microscope, import all imagines into computer with A/D conversion of pickup camera, via dealing with image analysis software obtained index of guide line as follows: relative bone volume, indicating percentage that bone trabecula accounted for medullary cavity, 1.25×10×4 times; average width of bone trabecula, 1.25×10×10 times; amount of cell per area in bone trabecula, gathering same area image (640×480) of bone trabecula with image analysis software, calculating amount of bone cell in corresponding area, 1.25×10×40 times; Average length of bone cell lacuna, 1.25×10×40; Average width of bone cell lacuna, 1.25×10×40. The above five indexes of static state guide-line were all observed for ten eyeshots, calculating their average value.

[6] = test system: acute renal failure of mice induced by endotoxin; assay: Acute renal failure model induced by endotoxin; type: in vivo, NIH mice; conditions: drug 10 mg/kg i.p., endotoxin 0.06 g/kg, after five hours, n=10; for GSH-Px: mice kidney homogenate; for BUN / Cr: mice serum
Description: After five hours, blood of the mice was collected by removing eyes, assayed Blood Urea Nitrogen (BUN) and Creatinine (Cr) concentration of serum. One kidney of each […] was taken out and made 100 mL/L homogenate, assayed activity of Glutathione Peroxidase (GSH-Px) enzyme.

[7] = test system: thymus and spleen of mice; assay: Indexes of thymus and spleen of mice injected with cyclophosphamide; type: in vivo, NIH mice; conditions: cyclophosphamide 60 mg/kg i.p., drug 10 mg/kg intragastric for 30 days, n=10
Description: Chose 90 healthy NIH mice, weighing (18˜22)g, equal amount of male and female. Every mouse was injected with cyclophos phamide (60 mg/kg, intraperitoneally). […] Administered specimen through intragastric intubation in terms of the dose in Table 8. Continuously administered orally specimen for 30 days, all mice fasted on the 30th day, but were supplied with water. On the 31th day, mice of every group were killed. Weighed their body, thymus and spleen, calculated index of thymus and spleen, compared the difference among each group.

[8] = test system: cerebral ischemia-reperfusion injury of mice; assay: Memory step-through test after cerebral ischemia-reperfusion injury; type: in vivo, NIH mice; conditions: 4.5 mg/kg intragastric once a day for 10 days, n=10
Description: After weighed, NIH mice were anaesthetized with Penbotarbital 60 mg/kg, then performed operation. Fixed at supine position, the skin in the middle of the deck was dissected about 7 mm. Separated common carotid artery of two sides of neck, surrounded with the thread of No “0”. Common carotid artery of two sides was chipped with artery clip for 2 minutes to induce cerebral ischemia. In the end of ischemia treatment, artery clip was loosed and blood perfusion was restored, rest for five minutes, repeated twice as that. After blocking blood flow of carotid, sutured incision. Recorded trail bloodletting, bloodletting quantity was no more than 10% of total blood quantity. After operation, […] were administered with proper physiological saline through intraperitoneal injection in order to supple capacity of blood. After pseudo operation group was anaesthetized, carotid of two sides was separated but blood flow was not blocked, without being bloodletting too.
In experiment appearance of body temperature lowering and righting reflex disappearing was as positive guide-line of ischemia, discarding those without typical guide line of ischemia. In the procedure of ischemia or after operation, some of animals would be dead. […] According to the dose of Table 7, animals were administered with medicine by intragastric intubation once a day, and continue administered drug for 10 days. After 10 days, memory test was performed.

[9] = drug 3 mg/kg 10 min before Ouabain 3 μg/min
[10] = myocardial tissue homogenate of rats with ISO myocardium injury
[11] = serum of rats with ISO myocardium injury, after 72 hours
[12] = rats, drug 0.5 mg/kg sublingual vein 10 min before Aconitine 2.5 μg/min, n=10
[13] = drug 1.5 mg/kg 10 min before Ouabain 3 μg/min

Row | Compound | Activity of CK [4, 10] [U/L] | Activity of LDH [4, 10] [U/L] | MDA [4, 10] [nmol/g] | Σ ST ([4]; 30 min) [mv] | Σ ST ([4]; 24 h) [mv] | Σ ST ([4]; 48 h) [mv] | Σ ST ([4]; 72 h) [mv] | Activity of CK [4, 11] [U/L] | Activity of LDH [4, 11] [U/L] | MDA [4, 11] [nmol/mL] | Amount of cell per area in bone trabecula [5] | Average width of bone trabecula [5] [μm] | Relative bone volume [5] [%] | GSH-Px [6] [nU · L^−1] | BUN [6] | Cr [6] | Index of spleen [7] [mg/10 g body weight] | Index of thymus [7] [mg/10 g body weight] | Latency of dark cabin, Memory [8] [s] | Latency of dark cabin, Study [8] [s] | further results
1 | CCCCc1oc2ccccc2c1C(=O)c1cc(I)c(OCCN(CC)CC)c(I)c1 [Amiodarone, reference compound] |  |  |  |  |  |  |  |  |  |  |  |  |  |  |  |  |  |  |  |  | Dose of Aconitine required to induce CA ([1]; {}): 0.176 ± 0.038 mg/kg; Dose of Aconitine required to induce VF ([1]; {}): 0.1412 ± 0.0282 mg/kg; Dose of Aconitine required to induce VP ([1]; {}): 0.09 ± 0.0257 mg/kg; Dose of Aconitine required to induce VT ([1]; {}): 0.1088 ± 0.0254 mg/kg; time of maintaining sinus rhythm [2]: 40.156 ± 5.124 min; time of storing sinus rhythm [2]: 15.859 ± 5.126 min; Dose of Oua at appearance of CA [3, 9]: 0.2836 ± 0.0439 mg/kg; Dose of Oua at appearance of VF [3, 9]: 0.2476 ± 0.0461 mg/kg; Dose of Oua at appearance of VP [3, 9]: 0.1184 ± 0.0335 mg/kg; Dose of Oua at appearance of VT [3, 9]: 0.175 ± 0.0411 mg/kg
2 | C[C@]12CC[C@H](OC(=O)CCCC(=O)O[C@H]3CC[C@@]4(C)C(=CC[C@@H]5[C@@H]4CC[C@]4(C)C(=O)CC[C@@H]54)C3)CC1=CC[C@@H]1[C@@H]2CC[C@]2(C)C(=O)CC[C@@H]12 [Compound E, glutaric acid-(5-androsten-17-one-3β-ol)-diester] | 206.18 ± 43.80 | 160.27 ± 20.36 | 89.62 ± 12.37 | 0.53 ± 0.11 | 0.50 ± 0.10 | 0.57 ± 0.04 | 0.51 ± 0.07 | 275.44 ± 21.81 | 267.35 ± 38.42 | 25.54 ± 3.80 | 19.35 ± 3.13 | 68.66 ± 9.80 | 35.87 ± 3.12 | 32.0 ± 14.4 | 315.9 ± 40.8*** 10 mg · L^−1 | 32.86 ± 8.07*** 10 mg · L^−1 | 68.20 ± 9.82 | 20.22 ± 2.75 | 45.8 ± 12.9 | 24.1 ± 16.0 | Dose of Aconitine required to induce CA [1, 12]: 0.1845 ± 0.0271 mg/kg; Dose of Aconitine required to induce VF [1, 12]: 0.1634 ± 0.0305 mg/kg; Dose of Aconitine required to induce VP [1, 12]: 0.1082 ± 0.0374 mg/kg; Dose of Aconitine required to induce VT [1, 12]: 0.1224 ± 0.0378 mg/kg; Number of error [8]: 3.1 ± 2.7 n
3 | C[C@]12CC[C@H](OC(=O)CCCCC(=O)O[C@H]3CC[C@@]4(C)C(=CC[C@@H]5[C@@H]4CC[C@]4(C)C(=O)CC[C@@H]54)C3)CC1=CC[C@@H]1[C@@H]2CC[C@]2(C)C(=O)CC[C@@H]12 [Compound F, adipic acid-(5-androsten-17-one-3β-ol)-diester] | 221.58 ± 45.58 | 157.39 ± 20.69 | 105.02 ± 10.84 | 0.47 ± 0.10 | 0.57 ± 0.15 | 0.61 ± 0.05 | 0.53 ± 0.08 | 252.17 ± 18.41 | 250.40 ± 31.30 | 24.16 ± 4.18 | 26.31 ± 3.16 | 74.67 ± 3.56 | 37.14 ± 3.46 | 35.2 ± 12.8 | 377.1 ± 38.1*** 10 mg · L^−1 | 38.31 ± 9.69*** 10 mg · L^−1 | 75.24 ± 15.48 | 16.24 ± 3.31 | 46.5 ± 13.8 | 28.7 ± 11.8 | Dose of Oua at appearance of CA [3, 13]: 0.212 ± 0.0406 mg/kg; Dose of Oua at appearance of VF [3, 13]: 0.1762 ± 0.0481 mg/kg; Dose of Oua at appearance of VP [3, 13]: 0.0874 ± 0.0213 mg/kg; Dose of Oua at appearance of VT [3, 13]: 0.1394 ± 0.0354 mg/kg; Number of error [8]: 2.9 ± 1.1 n
4 | glycol-disulphonic acid-(5-androsten-17-one-3β-ol)-diester [Compound G] | 225.60 ± 31.81 | 152.22 ± 25.42 | 99.52 ± 13.15 | 0.51 ± 0.13 | 0.50 ± 0.14 | 0.67 ± 0.19 | 0.42 ± 0.07 | 248.20 ± 20.50 | 254.75 ± 30.81 | 20.54 ± 2.11 | 25.84 ± 3.31 | 69.67 ± 3.15 | 34.37 ± 3.27 | 31.8 ± 12.3 | 412.2 ± 40.5*** 10 mg · L^−1 | 40.42 ± 10.94*** 10 mg · L^−1 | 80.22 ± 17.33 | 18.39 ± 3.24 | 47.5 ± 15.7 | 29.5 ± 17.5 | Dose of Oua at appearance of CA [3, 13]: 0.228 ± 0.0398 mg/kg; Dose of Oua at appearance of VF [3, 13]: 0.1887 ± 0.0378 mg/kg; Dose of Oua at appearance of VP [3, 13]: 0.1109 ± 0.0203 mg/kg; Dose of Oua at appearance of VT [3, 13]: 0.1443 ± 0.0338 mg/kg; Number of error [8]: 3.4 ± 1.6 n
